Measurements as given in patent publication US6737383B1, “Herbicidal oxadiazolidines” (priority 1999, dated 2004).

Assays:
duck salad = assay: Test B flood test duck salad; assay type: in vivo, Heteranthera limosa
How it was run: (§1)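 Plants were grown to the 2-leaf stage before treatment with test chemical, then held in a greenhouse for twelve to sixteen days. Injury was visually rated against untreated controls on a 0–10 scale, where 0 is no effect and 10 is complete control.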

pigweed = assay: Test B pre/postemergence pigweed; assay type: in vivo, Amaranthus retroflexus
How it was run: (§2)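 Response is a visual 0-to-10 score relative to untreated plants, where 0 means no effect and 10 means complete control, taken twelve to sixteen days after application. Treatments went onto soil at planting and onto foliage of 1- to 4-leaf plants, using a surfactant-containing non-phytotoxic solvent.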

sugar beet = assay: Test B pre/postemergence sugar beet; assay type: in vivo, Beta vulgaris
How it was run: as §2

purple nutsedge = assay: Test B pre/postemergence purple nutsedge; assay type: in vivo, Cyperus rotundus
How it was run: as §2

blackgrass = assay: Test B pre/postemergence blackgrass; assay type: in vivo, Alopecurus myosuroides
How it was run: as §2

giant foxtail = assay: Test B pre/postemergence giant foxtail; assay type: in vivo, Setaria faberii
How it was run: as §2

smallflower flatsedge = assay: Test B flood test smallflower flatsedge; assay type: in vivo, Cyperus difformis
How it was run: as §1

bamyardgrass = assay: Test B flood test barnyardgrass; assay type: in vivo, Echinochloa crus-galli
How it was run: as §1

soybean = assay: Test B pre/postemergence soybean; assay type: in vivo, Glycine max
How it was run: as §2

bedstraw = assay: Test B pre/postemergence bedstraw; assay type: in vivo, Galium aparine; settings: Preemergence
How it was run: as §2

wheat = assay: Test B pre/postemergence wheat; assay type: in vivo, Triticum aestivum
How it was run: as §2

wild oat = assay: Test B pre/postemergence wild oat; assay type: in vivo, Avena fatua
How it was run: as §2

velvetleaf = assay: Test B pre/postemergence velvetleaf; assay type: in vivo, Abutilon theophrasti
How it was run: as §2

morningglory = assay: Test B pre/postemergence morningglory; assay type: in vivo, Ipomoea hederacea
How it was run: as §2

rape = assay: Test B pre/postemergence rape; assay type: in vivo, Brassica napus
How it was run: as §2

rice = assay: Test B flood test rice; assay type: in vivo, Oryza sativa
How it was run: as §1

[1] = Postemergence (flood test species), Rate 125 g/ha, scale of 0 to 10 where 0 is no effect and 10 is complete control
[2] = Rate 62 g/ha, Postemergence section, flood test species, scale of 0 to 10 where 0 is no effect and 10 is complete control
[3] = Rate 250 g/ha, Postemergence (flood test), scale 0 to 10, 0 is no effect, 10 is complete control
[4] = Rate 250 g/ha, headed Pre-emergence (flood test species), scale 0 to 10 (0 no effect, 10 complete control)
[5] = Rate 500 g/ha, headed Pre-emergence (flood test species), scale 0 to 10 (0 no effect, 10 complete control)
[6] = Rate 500 g/ha, listed under Postemergence (flood test species), scale 0 to 10, 0 no effect, 10 complete control
[7] = Rate 1000 g/ha, Pre-emergence (as headed), scale 0 to 10
[8] = Rate 2000 g/ha, Pre-emergence (as headed), scale 0 to 10
[9] = Preemergence, Rate 62 g/ha, scale 0 to 10 (0 no effect, 10 complete control)
[10] = Preemergence, Rate 125 g/ha, 0 is no effect, 10 is complete control
[11] = Preemergence, Rate 250 g/ha, scale 0 to 10, 0 is no effect, 10 is complete control
[12] = Preemergence, Rate 500 g/ha, scale 0 to 10 (0 no effect, 10 complete control)
[13] = Rate 62 g/ha, Postemergence, scale of 0 to 10 where 0 is no effect and 10 is complete control
[14] = Rate 250 g/ha, Postemergence, scale 0 to 10, 0 is no effect, 10 is complete control
[15] = Rate 500 g/ha, Postemergence, scale 0 to 10, 0 no effect, 10 complete control
[16] = Postemergence, Rate 125 g/ha, scale of 0 to 10 where 0 is no effect and 10 is complete control

CC(C)N(C(=O)n1oc(=O)n(-c2cnn(C)c2)c1=O)c1ccccc1 [Compound 123]
Ducksalad plant response rating (duck salad; [1]): 0
Ducksalad plant response rating (duck salad; [2]): 0
Plant response rating, Ducksalad (duck salad; [3]): 0
Ducksalad plant response rating (duck salad; [4]): 0
Plant response rating, Ducksalad (duck salad; [5]): 0
Ducksalad plant response rating (duck salad; [6]): 0
Ducksalad plant response rating (duck salad; [7]): 0
Ducksalad plant response rating (duck salad; [8]): 0
Redroot pigweed plant response rating (pigweed; [9]): 0
Redroot pigweed plant response rating (0 to 10 scale) (pigweed; [10]): 4
Redroot pigweed plant response rating (pigweed; [11]): 5
Redroot pigweed plant response rating (pigweed; [12]): 9
Redroot pigweed plant response rating (pigweed; [13]): 0
Plant response rating, Redroot pigweed (pigweed; [14]): 2
Redroot pigweed plant response rating (pigweed; [15]): 2
Sugarbeets plant response rating (sugar beet; [16]): 0
Sugarbeets plant response rating (sugar beet; [9]): 0
Sugarbeets plant response rating (0 to 10 scale) (sugar beet; [10]): 3
Sugarbeets plant response rating (sugar beet; [11]): 5
Sugarbeets plant response rating (sugar beet; [12]): 7
Sugarbeets plant response rating (sugar beet; [13]): 0
Plant response rating, Sugarbeets (sugar beet; [14]): 1
Sugarbeets plant response rating (sugar beet; [15]): 2
Nutsedge plant response rating (purple nutsedge; [16]): 0
Nutsedge plant response rating (purple nutsedge; [9]): 0
Nutsedge plant response rating (0 to 10 scale) (purple nutsedge; [10]): 0
Nutsedge plant response rating (purple nutsedge; [11]): 0
Nutsedge plant response rating (purple nutsedge; [12]): 0
Nutsedge plant response rating (purple nutsedge; [13]): 0
Plant response rating, Nutsedge (purple nutsedge; [14]): 0
Nutsedge plant response rating (purple nutsedge; [15]): 0
Blackgrass plant response rating (blackgrass; [16]): 6
Blackgrass plant response rating (blackgrass; [9]): 0
Blackgrass plant response rating (0 to 10 scale) (blackgrass; [10]): 0
Blackgrass plant response rating (blackgrass; [11]): 4
Blackgrass plant response rating (blackgrass; [12]): 7
Blackgrass plant response rating (blackgrass; [13]): 2
Plant response rating, Blackgrass (blackgrass; [14]): 6
Blackgrass plant response rating (blackgrass; [15]): 7
Giant foxtail plant response rating (giant foxtail; [16]): 5
Giant foxtail plant response rating (giant foxtail; [9]): 7
Giant foxtail plant response rating (0 to 10 scale) (giant foxtail; [10]): 9
Giant foxtail plant response rating (giant foxtail; [11]): 9
Giant foxtail plant response rating (giant foxtail; [12]): 10
Giant foxtail plant response rating (giant foxtail; [13]): 3
Plant response rating, Giant foxtail (giant foxtail; [14]): 8
Giant foxtail plant response rating (giant foxtail; [15]): 9
S. Flatsedge plant response rating (smallflower flatsedge; [1]): 0
S. Flatsedge plant response rating (smallflower flatsedge; Pre-emergence, Rate 1000 g/ha, scale 0 to 10 (0 no effect, 10 complete control)): 0
S. Flatsedge plant response rating (smallflower flatsedge; [2]): 0
Plant response rating, S. Flatsedge (smallflower flatsedge; [3]): 0
S. Flatsedge plant response rating (smallflower flatsedge; [4]): 0
Plant response rating, S. Flatsedge (smallflower flatsedge; [5]): 0
S. Flatsedge plant response rating (smallflower flatsedge; [6]): 0
S. Flatsedge plant response rating (smallflower flatsedge; [8]): 0
Barnyardgrass plant response rating (bamyardgrass; [1]): 0
Barnyardgrass plant response rating (bamyardgrass; Postemergence, Rate 62 g/ha, scale 0 to 10, 0 is no effect, 10 is complete control): 0
Plant response rating, Barnyardgrass (bamyardgrass; [3]): 0
Barnyardgrass plant response rating (bamyardgrass; [4]): 0
Plant response rating, Barnyardgrass (bamyardgrass; [5]): 0
Barnyardgrass plant response rating (bamyardgrass; [6]): 0
Barnyardgrass plant response rating (bamyardgrass; [7]): 0
Barnyardgrass plant response rating (bamyardgrass; Rate 2000 g/ha, Pre-emergence (as headed), scale 0 to 10, 0 no effect, 10 complete control): 0
Soybean plant response rating (soybean; [16]): 4
Soybean plant response rating (soybean; [9]): 0
Soybean plant response rating (0 to 10 scale) (soybean; [10]): 0
Soybean plant response rating (soybean; [11]): 0
Soybean plant response rating (soybean; [12]): 0
Soybean plant response rating (soybean; [13]): 2
Plant response rating, Soybean (soybean; [14]): 4
Soybean plant response rating (soybean; [15]): 4
Bedstraw plant response rating (bedstraw; Rate 62 g/ha, scale 0 to 10 (0 no effect, 10 complete control)): 0
Bedstraw plant response rating (0 to 10 scale) (bedstraw; Rate 125 g/ha, 0 is no effect, 10 is complete control): 0
Bedstraw plant response rating (bedstraw; Rate 250 g/ha, scale 0 to 10, 0 is no effect, 10 is complete control): 0
Bedstraw plant response rating (bedstraw; Rate 500 g/ha, scale 0 to 10 (0 no effect, 10 complete control)): 0
Wheat plant response rating (wheat; [16]): 1
Wheat plant response rating (wheat; [9]): 0
Wheat plant response rating (0 to 10 scale) (wheat; [10]): 0
Wheat plant response rating (wheat; [11]): 5
Wheat plant response rating (wheat; [12]): 7
Wheat plant response rating (wheat; [13]): 0
Plant response rating, Wheat (wheat; [14]): 1
Wheat plant response rating (wheat; [15]): 4
Wild oats plant response rating (wild oat; [16]): 0
Wild oats plant response rating (wild oat; [9]): 0
Wild oats plant response rating (0 to 10 scale) (wild oat; [10]): 2
Wild oats plant response rating (wild oat; [11]): 6
Wild oats plant response rating (wild oat; [12]): 6
Wild oats plant response rating (wild oat; [13]): 0
Plant response rating, Wild oats (wild oat; [14]): 0
Wild oats plant response rating (wild oat; [15]): 2
Velvetleaf plant response rating (velvetleaf; [16]): 0
Velvetleaf plant response rating (velvetleaf; [9]): 0
Velvetleaf plant response rating (0 to 10 scale) (velvetleaf; [10]): 0
Velvetleaf plant response rating (velvetleaf; [11]): 3
Velvetleaf plant response rating (velvetleaf; [12]): 6
Velvetleaf plant response rating (velvetleaf; [13]): 0
Plant response rating, Velvetleaf (velvetleaf; [14]): 0
Morningglory plant response rating (morningglory; [16]): 9
Morningglory plant response rating (morningglory; [9]): 0
Morningglory plant response rating (0 to 10 scale) (morningglory; [10]): 0
Morningglory plant response rating (morningglory; [11]): 0
Morningglory plant response rating (morningglory; [12]): 0
Morningglory plant response rating (morningglory; [13]): 8
Plant response rating, Morningglory (morningglory; [14]): 10
Morningglory plant response rating (morningglory; [15]): 10
Rape plant response rating (rape; [16]): 0
Rape plant response rating (rape; [9]): 0
Rape plant response rating (0 to 10 scale) (rape; [10]): 0
Rape plant response rating (rape; [11]): 0
Rape plant response rating (rape; [12]): 0
Rape plant response rating (rape; [13]): 0
Plant response rating, Rape (rape; [14]): 0
Rape plant response rating (rape; [15]): 2
Rice plant response rating (rice; [1]): 0
Rice plant response rating (rice; [2]): 0
Plant response rating, Rice (rice; [3]): 0
Rice plant response rating (rice; [4]): 0
Plant response rating, Rice (rice; [5]): 0
Rice plant response rating (rice; [6]): 0
Rice plant response rating (rice; [7]): 0
Rice plant response rating (rice; [8]): 0
